Measurements as given in ChEMBL document CHEMBL5463728, “Data for DCP probe BAY-6096” (2023).

Tests used:
[1] = target: Kappa-type opioid receptor (Homo sapiens) (UniProt P41145); conditions: Compound concentration 10.0 uM
[2] = target: Prostaglandin G/H synthase 2 (Homo sapiens) (UniProt P35354); test: Inhibition of Cyclooxygenase COX-2 at compound concentration of 10.0 uM in the Eurofins-Panlabs enzyme assay (Eurofins_assay_118010); parameters: substrate with concentration 0.3 uM Arachidonic acid, incubation time 15 min, incubation temperature 37 C; conditions: Compound concentration 10.0 uM
[3] = target: Glutamate receptor 2 (Homo sapiens) (UniProt P42262); conditions: Rattus norvegicus; Compound concentration 10.0 uM
[4] = target: Glucocorticoid receptor (Homo sapiens) (UniProt P04150); conditions: Compound concentration 10.0 uM
[5] = target: Beta-3 adrenergic receptor (Homo sapiens, UniProt P13945); test: Adrenoceptor reporter cell assay (ADRB3); format: functional
[6] = target: D(3) dopamine receptor (Homo sapiens) (UniProt P35462); conditions: Compound concentration 10.0 uM
[7] = target: Endothelin-1 receptor (Homo sapiens) (UniProt P25101); conditions: Compound concentration 10.0 uM
[8] = target: Adenosine receptor A2a (Homo sapiens) (UniProt P29274); conditions: Compound concentration 10.0 uM
[9] = target: Vasopressin V1a receptor (Homo sapiens) (UniProt P37288); conditions: Compound concentration 10.0 uM
[10] = target: Phosphodiesterase 3 (Homo sapiens) (UniProt Q14432+Q13370); test: Inhibition of Phosphodiesterase PDE3 at compound concentration of 10.0 uM in the Eurofins-Panlabs enzyme assay (Eurofins_assay_152000); format: protein assay; parameters: substrate with concentration 1.01 uM [3H] cAMP + cAMP, incubation time 20 min, incubation temperature 25 C; conditions: Compound concentration 10.0 uM
[11] = target: Type-1 angiotensin II receptor (Homo sapiens) (UniProt P30556); conditions: Compound concentration 10.0 uM
[12] = organism: Rattus norvegicus; conditions: Compound concentration 10.0 uM
[13] = target: GABA-A receptor; anion channel (Rattus norvegicus) (UniProt O09028+P15431+P18506+P18508+P19969+P20236+P23574+P23576+P28471+P28473+P30191+P62813+P63079+P63138+Q91ZM7+Q9ES14); conditions: Compound concentration 10.0 uM
[14] = organism: Oryctolagus cuniculus; conditions: Compound concentration 10.0 uM
[15] = target: Muscarinic acetylcholine receptor M1 (Homo sapiens) (UniProt P11229); conditions: Compound concentration 10.0 uM
[16] = target: T1, 5-hydroxytryptamine receptor 2C (Homo sapiens) (UniProt P28335); conditions: Compound concentration 10.0 uM
T1 sequence (whole entry): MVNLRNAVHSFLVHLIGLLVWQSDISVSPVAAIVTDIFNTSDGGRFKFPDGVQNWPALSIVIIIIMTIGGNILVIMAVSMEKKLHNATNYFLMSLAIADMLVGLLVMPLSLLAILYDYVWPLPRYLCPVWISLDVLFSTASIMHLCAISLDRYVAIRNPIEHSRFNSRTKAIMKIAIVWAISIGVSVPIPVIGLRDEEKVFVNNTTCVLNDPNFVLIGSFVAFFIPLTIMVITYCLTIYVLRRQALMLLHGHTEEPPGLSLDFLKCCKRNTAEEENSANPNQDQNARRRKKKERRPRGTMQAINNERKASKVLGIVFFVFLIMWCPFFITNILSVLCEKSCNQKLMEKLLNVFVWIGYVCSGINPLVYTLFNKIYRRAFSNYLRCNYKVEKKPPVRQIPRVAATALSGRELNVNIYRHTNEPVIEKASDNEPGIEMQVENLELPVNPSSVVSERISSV

[17] = target: Gamma-aminobutyric acid type B receptor subunit 1 (Homo sapiens) (UniProt Q9UBS5); conditions: Rattus norvegicus; Compound concentration 10.0 uM
[18] = target: Endothelin receptor type B (Homo sapiens) (UniProt P24530); conditions: Compound concentration 10.0 uM
[19] = target: cGMP-specific 3',5'-cyclic phosphodiesterase (Homo sapiens) (UniProt O76074); conditions: Compound concentration 10.0 uM
[20] = target: Adenosine receptor A1 (Homo sapiens) (UniProt P30542); conditions: Compound concentration 10.0 uM
[21] = target: T2, Muscarinic acetylcholine receptor M4 (Homo sapiens) (UniProt P08173); conditions: Compound concentration 10.0 uM
T2 sequence (whole entry): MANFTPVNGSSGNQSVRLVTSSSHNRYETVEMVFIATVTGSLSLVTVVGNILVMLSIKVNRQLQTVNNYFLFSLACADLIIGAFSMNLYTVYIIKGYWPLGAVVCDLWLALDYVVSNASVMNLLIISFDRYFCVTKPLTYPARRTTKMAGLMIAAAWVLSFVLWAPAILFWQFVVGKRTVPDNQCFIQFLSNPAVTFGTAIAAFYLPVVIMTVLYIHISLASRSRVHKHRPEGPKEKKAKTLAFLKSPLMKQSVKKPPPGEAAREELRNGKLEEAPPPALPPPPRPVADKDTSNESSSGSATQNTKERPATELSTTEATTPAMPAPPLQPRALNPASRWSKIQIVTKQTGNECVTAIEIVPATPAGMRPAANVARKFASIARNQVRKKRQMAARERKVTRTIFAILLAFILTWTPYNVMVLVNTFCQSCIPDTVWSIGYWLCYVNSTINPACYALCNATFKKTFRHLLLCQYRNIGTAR

[22] = target: B2 bradykinin receptor (Homo sapiens) (UniProt P30411); conditions: Compound concentration 10.0 uM
[23] = target: T3, Muscarinic acetylcholine receptor M2 (Homo sapiens) (UniProt P08172); conditions: Compound concentration 10.0 uM
T3 sequence (whole entry): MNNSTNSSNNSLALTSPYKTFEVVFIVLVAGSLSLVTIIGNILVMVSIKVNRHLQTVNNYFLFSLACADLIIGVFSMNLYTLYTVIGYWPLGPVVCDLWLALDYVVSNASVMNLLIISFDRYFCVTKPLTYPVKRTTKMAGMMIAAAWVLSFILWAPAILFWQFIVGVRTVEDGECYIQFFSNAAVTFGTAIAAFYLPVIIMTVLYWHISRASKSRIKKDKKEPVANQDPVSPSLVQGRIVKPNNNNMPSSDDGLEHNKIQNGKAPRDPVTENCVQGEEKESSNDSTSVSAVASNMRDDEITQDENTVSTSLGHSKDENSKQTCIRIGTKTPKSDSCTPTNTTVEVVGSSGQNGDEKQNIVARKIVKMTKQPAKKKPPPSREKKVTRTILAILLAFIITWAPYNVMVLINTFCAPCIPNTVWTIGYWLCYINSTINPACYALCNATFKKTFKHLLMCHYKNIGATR

[24] = organism: Rattus norvegicus; conditions: Compound concentration 10.0 uM; remark: listed apart in the source
[25] = target: Muscarinic acetylcholine receptor M1 (Homo sapiens) (UniProt P11229); conditions: Compound concentration 10.0 uM; remark: listed apart in the source
[26] = target: Sodium-dependent dopamine transporter (Homo sapiens) (UniProt Q01959); conditions: Compound concentration 10.0 uM
Sequence of Sodium-dependent dopamine transporter (Homo sapiens) (Q01959 whole entry): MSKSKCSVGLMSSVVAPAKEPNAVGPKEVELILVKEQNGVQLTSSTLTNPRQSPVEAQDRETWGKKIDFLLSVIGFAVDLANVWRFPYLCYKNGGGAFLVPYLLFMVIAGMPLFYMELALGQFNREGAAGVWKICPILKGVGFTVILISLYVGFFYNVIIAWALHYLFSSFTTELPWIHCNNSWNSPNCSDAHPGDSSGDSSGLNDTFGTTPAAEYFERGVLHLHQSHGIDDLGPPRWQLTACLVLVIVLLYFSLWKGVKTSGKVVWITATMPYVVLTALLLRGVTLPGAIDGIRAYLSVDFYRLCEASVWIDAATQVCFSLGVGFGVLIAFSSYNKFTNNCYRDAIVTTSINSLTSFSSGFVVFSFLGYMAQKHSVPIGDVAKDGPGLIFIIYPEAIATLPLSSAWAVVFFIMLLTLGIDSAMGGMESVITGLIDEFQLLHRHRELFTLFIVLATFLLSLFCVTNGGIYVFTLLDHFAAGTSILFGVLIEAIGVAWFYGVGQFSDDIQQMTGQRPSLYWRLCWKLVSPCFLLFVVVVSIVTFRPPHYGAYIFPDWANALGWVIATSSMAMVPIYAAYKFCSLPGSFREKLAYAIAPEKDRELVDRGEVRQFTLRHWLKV

Sequence of Muscarinic acetylcholine receptor M1 (Homo sapiens) (P11229 whole entry): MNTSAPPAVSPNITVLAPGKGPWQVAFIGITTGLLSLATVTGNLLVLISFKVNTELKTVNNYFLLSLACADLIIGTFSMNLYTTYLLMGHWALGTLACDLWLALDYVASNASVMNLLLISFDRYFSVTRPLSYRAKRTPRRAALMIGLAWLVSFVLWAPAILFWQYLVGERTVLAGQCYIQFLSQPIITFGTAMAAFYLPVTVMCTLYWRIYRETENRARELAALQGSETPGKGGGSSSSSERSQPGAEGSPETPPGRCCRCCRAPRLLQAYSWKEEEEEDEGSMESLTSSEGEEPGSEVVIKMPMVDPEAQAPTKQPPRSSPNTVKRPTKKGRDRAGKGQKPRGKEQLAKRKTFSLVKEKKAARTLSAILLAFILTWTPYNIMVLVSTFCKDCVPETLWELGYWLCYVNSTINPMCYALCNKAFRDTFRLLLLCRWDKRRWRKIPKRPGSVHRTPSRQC
Sequence of Glutamate receptor 2 (Homo sapiens) (P42262 whole entry): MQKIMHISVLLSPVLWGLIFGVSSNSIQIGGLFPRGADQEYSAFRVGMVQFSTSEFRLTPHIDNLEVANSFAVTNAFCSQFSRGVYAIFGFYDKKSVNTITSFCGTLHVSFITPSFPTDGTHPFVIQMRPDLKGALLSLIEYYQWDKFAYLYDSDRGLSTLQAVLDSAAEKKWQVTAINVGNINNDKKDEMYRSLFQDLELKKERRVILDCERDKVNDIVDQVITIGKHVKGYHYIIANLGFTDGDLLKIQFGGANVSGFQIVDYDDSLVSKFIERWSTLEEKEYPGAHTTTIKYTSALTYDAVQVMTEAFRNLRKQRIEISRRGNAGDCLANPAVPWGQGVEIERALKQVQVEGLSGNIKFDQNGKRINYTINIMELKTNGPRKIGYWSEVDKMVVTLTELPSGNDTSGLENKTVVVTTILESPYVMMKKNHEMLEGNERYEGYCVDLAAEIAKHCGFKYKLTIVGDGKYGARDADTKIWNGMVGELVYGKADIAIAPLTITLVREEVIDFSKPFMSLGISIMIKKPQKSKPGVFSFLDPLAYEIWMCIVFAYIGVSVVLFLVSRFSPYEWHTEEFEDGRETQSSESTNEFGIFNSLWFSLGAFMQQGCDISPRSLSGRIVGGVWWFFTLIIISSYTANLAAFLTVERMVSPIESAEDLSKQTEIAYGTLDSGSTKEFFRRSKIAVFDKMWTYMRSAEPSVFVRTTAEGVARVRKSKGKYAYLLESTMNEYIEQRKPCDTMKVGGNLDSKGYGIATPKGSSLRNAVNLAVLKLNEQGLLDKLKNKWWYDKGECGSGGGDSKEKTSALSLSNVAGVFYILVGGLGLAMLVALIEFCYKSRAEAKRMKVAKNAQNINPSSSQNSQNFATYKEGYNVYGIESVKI
Sequence of D(3) dopamine receptor (Homo sapiens) (P35462 whole entry): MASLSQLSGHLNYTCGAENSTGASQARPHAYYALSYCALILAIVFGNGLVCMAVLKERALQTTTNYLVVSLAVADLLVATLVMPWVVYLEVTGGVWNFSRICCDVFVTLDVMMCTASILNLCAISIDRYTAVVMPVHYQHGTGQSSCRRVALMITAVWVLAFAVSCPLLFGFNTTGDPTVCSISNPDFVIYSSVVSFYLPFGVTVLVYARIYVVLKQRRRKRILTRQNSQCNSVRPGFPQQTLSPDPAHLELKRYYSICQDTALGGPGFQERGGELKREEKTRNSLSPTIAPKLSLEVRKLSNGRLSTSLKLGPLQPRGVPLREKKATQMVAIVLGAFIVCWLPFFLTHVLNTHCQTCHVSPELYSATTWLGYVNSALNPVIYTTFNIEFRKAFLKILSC
Sequence of Type-1 angiotensin II receptor (Homo sapiens) (P30556 whole entry): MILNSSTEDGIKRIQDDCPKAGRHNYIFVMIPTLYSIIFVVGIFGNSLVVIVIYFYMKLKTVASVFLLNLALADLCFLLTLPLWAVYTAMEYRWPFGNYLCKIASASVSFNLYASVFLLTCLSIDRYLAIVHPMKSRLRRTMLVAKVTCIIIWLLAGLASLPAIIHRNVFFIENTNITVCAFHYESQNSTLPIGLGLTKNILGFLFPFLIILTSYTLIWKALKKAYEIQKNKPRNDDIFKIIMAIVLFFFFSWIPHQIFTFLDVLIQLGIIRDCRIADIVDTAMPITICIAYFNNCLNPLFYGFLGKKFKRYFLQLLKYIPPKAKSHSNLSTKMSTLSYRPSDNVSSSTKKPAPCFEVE
Sequence of Gamma-aminobutyric acid type B receptor subunit 1 (Homo sapiens) (Q9UBS5 whole entry): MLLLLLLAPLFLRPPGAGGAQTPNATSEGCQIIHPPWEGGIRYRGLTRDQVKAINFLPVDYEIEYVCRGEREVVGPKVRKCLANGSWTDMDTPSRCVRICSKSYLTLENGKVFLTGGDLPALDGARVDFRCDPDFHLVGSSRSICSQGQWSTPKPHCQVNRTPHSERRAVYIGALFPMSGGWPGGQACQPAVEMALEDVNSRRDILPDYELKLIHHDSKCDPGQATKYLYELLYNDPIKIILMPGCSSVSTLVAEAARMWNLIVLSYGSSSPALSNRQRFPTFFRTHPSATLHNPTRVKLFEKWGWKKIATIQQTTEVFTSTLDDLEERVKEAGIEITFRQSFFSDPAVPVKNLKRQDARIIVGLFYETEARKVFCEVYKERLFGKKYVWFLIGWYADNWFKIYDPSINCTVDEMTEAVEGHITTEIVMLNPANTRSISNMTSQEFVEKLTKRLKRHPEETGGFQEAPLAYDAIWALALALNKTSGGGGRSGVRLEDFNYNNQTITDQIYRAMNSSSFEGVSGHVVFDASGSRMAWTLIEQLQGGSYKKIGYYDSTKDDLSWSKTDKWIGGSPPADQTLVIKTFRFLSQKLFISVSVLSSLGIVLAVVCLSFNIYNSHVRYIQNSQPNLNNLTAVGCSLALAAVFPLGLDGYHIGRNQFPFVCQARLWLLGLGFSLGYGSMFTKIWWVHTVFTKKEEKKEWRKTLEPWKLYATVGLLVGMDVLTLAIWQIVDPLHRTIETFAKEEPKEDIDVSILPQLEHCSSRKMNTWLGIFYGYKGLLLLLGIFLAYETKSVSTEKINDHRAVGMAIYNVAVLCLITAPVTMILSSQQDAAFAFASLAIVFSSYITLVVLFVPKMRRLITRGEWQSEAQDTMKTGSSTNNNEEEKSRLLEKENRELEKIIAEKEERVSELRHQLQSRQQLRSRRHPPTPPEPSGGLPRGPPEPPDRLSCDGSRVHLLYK
Sequence of Kappa-type opioid receptor (Homo sapiens) (P41145 whole entry): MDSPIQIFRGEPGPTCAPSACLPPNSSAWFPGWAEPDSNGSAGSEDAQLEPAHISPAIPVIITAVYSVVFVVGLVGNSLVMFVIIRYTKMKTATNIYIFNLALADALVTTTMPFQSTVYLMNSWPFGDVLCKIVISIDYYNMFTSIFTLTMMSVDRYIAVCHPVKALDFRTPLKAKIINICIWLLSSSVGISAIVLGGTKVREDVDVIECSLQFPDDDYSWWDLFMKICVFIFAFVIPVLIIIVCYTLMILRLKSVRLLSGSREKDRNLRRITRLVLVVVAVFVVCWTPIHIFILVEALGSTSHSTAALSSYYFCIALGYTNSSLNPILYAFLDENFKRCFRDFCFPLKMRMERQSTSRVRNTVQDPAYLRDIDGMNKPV
Sequence of Adenosine receptor A2a (Homo sapiens) (P29274 whole entry): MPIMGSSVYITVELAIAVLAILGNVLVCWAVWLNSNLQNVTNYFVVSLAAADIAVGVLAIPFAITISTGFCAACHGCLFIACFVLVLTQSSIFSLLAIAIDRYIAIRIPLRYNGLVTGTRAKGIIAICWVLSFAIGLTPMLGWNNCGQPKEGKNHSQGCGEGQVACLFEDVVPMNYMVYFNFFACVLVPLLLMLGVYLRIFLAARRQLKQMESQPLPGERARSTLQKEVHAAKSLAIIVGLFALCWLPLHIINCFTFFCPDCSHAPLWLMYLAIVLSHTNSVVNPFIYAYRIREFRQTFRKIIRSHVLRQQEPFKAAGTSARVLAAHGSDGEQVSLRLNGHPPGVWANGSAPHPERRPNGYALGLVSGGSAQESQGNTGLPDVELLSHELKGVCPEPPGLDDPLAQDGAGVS
Sequence of Adenosine receptor A1 (Homo sapiens) (P30542 whole entry): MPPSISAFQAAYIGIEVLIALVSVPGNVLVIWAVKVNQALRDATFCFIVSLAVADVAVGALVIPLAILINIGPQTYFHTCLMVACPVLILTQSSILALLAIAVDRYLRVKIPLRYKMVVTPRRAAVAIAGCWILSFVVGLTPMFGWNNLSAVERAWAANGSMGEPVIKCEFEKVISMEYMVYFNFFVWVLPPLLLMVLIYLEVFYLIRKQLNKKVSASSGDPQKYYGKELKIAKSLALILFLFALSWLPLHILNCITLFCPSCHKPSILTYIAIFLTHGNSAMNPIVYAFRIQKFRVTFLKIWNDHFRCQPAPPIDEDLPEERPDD

In the case of `CNc1cc[n+](CCNC(=O)c2ccn3c(-c4c(C)noc4C)cnc3c2)cc1`, the inhibition [1] is reported as 0.5%, the inhibition [2] is reported as -8.7% and the inhibition [3] is reported as -1.1%. The inhibition [4] was 1.3%, the IC50 [5] was > 10 µM (not active) and the inhibition [6] was -4.7%. For the same molecule, the inhibition [7] was -2.2%, the inhibition [8] was -8.3% and the inhibition [9] was -2.3%. It also gave an inhibition [10] of 3.4%, an inhibition [11] of 5% and an inhibition [12] of 4.24%. For the same molecule, the inhibition [13] was -1.9%, the inhibition [14] was -7.5% and the inhibition [15] was -4.1%. The inhibition [16] was 0.5%, the inhibition [17] was 2.1% and the inhibition [18] was -2.3%. It also gave an inhibition [19] of 3.6%, an inhibition [20] of 1.2% and an inhibition [21] of 3.5%. It also gave an inhibition [22] of -1.8%, an inhibition [23] of 6.4% and an inhibition [24] of 0.4%.

`Cc1noc(C)c1-c1cnc2cc(C(=O)NCCC[n+]3ccc(N(C)C)cc3)ccn12` gave an inhibition [25] of -6.93% and an inhibition [26] of -3.28%.
